Where a name gives a salt, the structure may show the parent alone.
Experiment: Solubility test of Semapimod salts (sonication at room temperature, filtration, HPLC against a Semapimod-4 HCl/4 H2O standard)
Format: physicochemical
Settings: for Solubility in H2O: sonicated at room temperature, Nylon syringe filter, HPLC vs standard from Semapimod-4 HCl/4 H2O
Experimental: The product isolated as Semapimod-2 HCl/4 H2O was added to ca. 2 mL of solvents (H2O, 5% Dextrose solution, PBS, and 0.9% NaCl solution), and was sonicated at room temperature until the solid suspended in the solution. The mixture was passed through a Nylon syringe filter, and then 0.5 mL of the filtrate was diluted with MeOH before injection into the HPLC. […] For reference purpose, the solubility of Semapimod-4 HCl/4 H2O was determined according to the previous procedure.
The Semapimod salts mentioned in the above table were subjected to solubility tests using the same procedure outlined above.

SMILES | Solubility in 5% Dextrose (5% Dextrose solution, room temperature, HPLC vs standard) [mg/mL] | Solubility in H2O
CC(=NNC(=N)N)c1cc(NC(=O)CCCCCCCCC(=O)Nc2cc(C(C)=NNC(=N)N)cc(C(C)=NNC(=N)N)c2)cc(C(C)=NNC(=N)N)c1.Cl.Cl.O.O.O.O [Semapimod-2 HCl/4 H2O] | 13.44 | ca. 9.54 mg/mL
C/C(=N\NC(=N)N)c1cc(NC(=O)CCCCCCCCC(=O)Nc2cc(/C(C)=N/NC(=N)N)cc(/C(C)=N/NC(=N)N)c2)cc(/C(C)=N/NC(=N)N)c1 [Semapimod-4 HCl/4 H2O, reference compound] |  | 14.15 mg/mL
